Source: patent publication US10508086B2 (CANCER RESEARCH TECHNOLOGY LIMITED, priority 2014, dated 2019)

Target: Human Full Length PARG (Homo sapiens (Human), UniProt Q86W56)
Experiment: PARG in vitro enzyme assay (TR-FRET)
Assay type: biochemical
Settings: read-out: PARG_EC50_ENZYME
Description: PARG In vitro assays were conducted in a total volume of 15 ul in a standard 384 well format. 5 ul of Human Full Length PARG (Produced internally by Astra Zeneca), used at a final reaction concentration of […], was added to 5 ul of Ribosylated PARP substrate (also produced internally by Astra Zeneca) at final reaction concentration of 4.5 nM in assay buffer (50 mM Tris pH7.4, 0.1 mg/ml BSA, 3 mM EDTA, 0.4 mM EGTA, 1 mM DTT, 0.01% Tween 20, 50 mM KCl). The reaction was incubated at room temperature for 10 minutes and then 5 ul detection reagent was added. Detection Reagent consists of 42 nM MAb Anti-6HIS XL665 (CisBio: 61 HISXLB) and 2.25 nM Streptavidin Europium Cryptate (CisBio: 610SAKLB), both at 3× working stock concentrations (final concentrations of 14 nM and 0.75 nM respectively), in a detection buffer of 50 mM Tris pH7.4, BSA at 0.1 mg/ml and KF at 100 mM. Following incubation at room temperature for 60 minutes in the dark, TR-FRET signal was measured at Ex 340 and Em 665 and Em 620. A ratio was calculated as Em665/EM620×104 for each well and used to calculate percent inhibition for test compounds.

Chain of Human Full Length PARG (Q86W56 whole entry): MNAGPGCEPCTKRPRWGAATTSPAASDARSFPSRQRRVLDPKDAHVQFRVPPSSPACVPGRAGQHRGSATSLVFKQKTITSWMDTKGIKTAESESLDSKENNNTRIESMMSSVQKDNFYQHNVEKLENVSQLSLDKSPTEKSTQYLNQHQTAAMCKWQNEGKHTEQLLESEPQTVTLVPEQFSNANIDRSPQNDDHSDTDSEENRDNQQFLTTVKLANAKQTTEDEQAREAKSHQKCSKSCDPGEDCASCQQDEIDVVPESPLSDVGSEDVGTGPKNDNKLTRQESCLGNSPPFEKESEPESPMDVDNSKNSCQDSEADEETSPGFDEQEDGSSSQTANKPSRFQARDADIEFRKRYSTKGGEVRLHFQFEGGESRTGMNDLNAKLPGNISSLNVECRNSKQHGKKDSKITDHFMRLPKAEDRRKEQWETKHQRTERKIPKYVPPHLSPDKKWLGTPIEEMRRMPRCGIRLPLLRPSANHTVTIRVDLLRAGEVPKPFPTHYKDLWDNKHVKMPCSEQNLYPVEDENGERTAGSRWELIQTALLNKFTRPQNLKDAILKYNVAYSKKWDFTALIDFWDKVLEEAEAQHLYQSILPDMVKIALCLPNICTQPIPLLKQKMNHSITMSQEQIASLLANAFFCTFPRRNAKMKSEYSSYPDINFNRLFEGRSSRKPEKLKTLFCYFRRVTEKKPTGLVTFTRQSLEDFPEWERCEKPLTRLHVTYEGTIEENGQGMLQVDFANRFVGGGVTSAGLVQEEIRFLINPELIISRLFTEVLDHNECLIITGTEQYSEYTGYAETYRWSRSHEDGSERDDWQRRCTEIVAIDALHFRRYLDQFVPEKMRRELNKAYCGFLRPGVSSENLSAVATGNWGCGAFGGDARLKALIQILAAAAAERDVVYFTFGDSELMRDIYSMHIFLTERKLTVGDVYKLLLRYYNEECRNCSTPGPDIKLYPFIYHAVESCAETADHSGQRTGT

Structure (SMILES) | EC50 [µM]
Cc1nnc(-n2c(CCc3cnn(C)c3)nc3ccc(S(=O)(=O)NC4(C)CC4)cc32)s1 [Example 121] | 1.02
CC(=O)Nc1ccc(Cn2c(=O)n(C)c3cc(S(=O)(=O)NC4(C)CC4)ccc32)cc1 [Example 63] | 4.17
Cc1nnc(-n2c(=O)n(CCN3CCCC3)c3ccc(S(=O)(=O)NC4(C)CC4)cc32)s1 [Example 153] | 1.12
Cc1nnc(-n2c(Cc3cnn(C)c3)nc3ccc(S(=O)(=O)NC4(C)CC4)cc32)s1 [Example 120] | 0.867
Cn1c(=O)n(-c2nnc(C(F)(F)F)s2)c2cc(S(=O)(=O)NC3(C)CC3)ccc21 [Example 78] | 0.717
Cn1c(=O)n(Cc2ccccc2F)c2ccc(S(=O)(=O)NC3(C)CC3)cc21 [Example 40] | 6.3
Cn1c(=O)n(-c2nccs2)c2cc(S(=O)(=O)NC3(C)CC3)ccc21 [Example 53] | 2.86
Cn1nccc1Cn1c(=O)n(C)c2cc(S(=O)(=O)NC3(C)CC3)ccc21 [Example 64] | 8.5
CC(=O)OCCn1c(=O)n(C)c2cc(S(=O)(=O)NC3(C)CC3)ccc21 [Example 22] | 9.18
Cn1c(=O)n(Cc2ccc(C#N)cc2)c2ccc(S(=O)(=O)NC3(C)CC3)cc21 [Example 45] | 3.2
Cn1c(=O)n(CC2CC2(F)F)c2ccc(S(=O)(=O)NC3(C)CC3)cc21 (centres unmarked) [Example 6] | 8.32
Cn1c(=O)n(Cc2cccc(C#N)c2)c2ccc(S(=O)(=O)NC3(C)CC3)cc21 [Example 44] | 3.35
Cc1nc(C)c(Cn2c(=O)n(-c3ccn(C)n3)c3cc(S(=O)(=O)NC4(C)CC4)ccc32)s1 [Example 96] | 7.03
COc1ccccc1Cn1c(=O)n(C)c2cc(S(=O)(=O)NC3(C)CC3)ccc21 [Example 35] | 7.69
Cc1csc(-n2c(=O)n(Cc3sc(C)nc3C)c3ccc(S(=O)(=O)NC4(C)CC4)cc32)n1 [Example 106] | 1.52
Cn1c(=O)n(Cc2cccc(F)c2)c2ccc(S(=O)(=O)NC3(C)CC3)cc21 [Example 41] | 5.77
Cn1c(=O)n(-c2ncc(CCC(=O)O)s2)c2cc(S(=O)(=O)NC3(C)CC3)ccc21 [Example 70, 3-[2-[3-Methyl-6-[(1-methylcyclopropyl)sulfamoyl]-2-oxo-benzimidazol-1-yl]thiazol-5-yl]propanoic acid] | 0.804
Cn1c(=O)n(Cc2ccc([N+](=O)[O-])o2)c2ccc(S(=O)(=O)NC3(C)CC3)cc21 [Example 62] | 5.9
Cn1c(=O)n(Cc2ccc(C(N)=O)cc2)c2ccc(S(=O)(=O)NC3(C)CC3)cc21 [Example 59] | 2.66
Cc1nnc(-n2c(=O)n(CCN(C)C)c3ccc(S(=O)(=O)NC4(C)CC4)cc32)s1 [Example 85] | 0.684
CCOC(=O)n1cc(Cc2sc(C)nc2C)c2ccc(S(=O)(=O)NC3(C)CC3)cc21 [Example 132, Ethyl 3-[(2,4-dimethylthiazol-5-yl)methyl]-6-[(1-methylcyclopropyl)sulfamoyl]indole-1-carboxylate] | 7.42
Cc1nc(C)c(Cn2c(=O)[nH]c3cc(S(=O)(=O)NC4(C)CC4)ccc32)s1 [Example 89, 1-[(2,4-Dimethylthiazol-5-yl)methyl]-N-(1-methylcyclopropyl)-2-oxo-3H-benzimidazole-5-sulfonamide] | 9.27
Cc1nnc(-n2cc(Cc3ccc(F)cc3)c3ccc(S(=O)(=O)NC4(C)CC4)cc32)s1 [Example 127, 3-[(4-Fluorophenyl)methyl]-N-(1-methylcyclopropyl)-1-(5-methyl-1,3,4-thiadiazol-2-yl)indole-6-sulfonamide] | 6.05
Cn1c(=O)n(-c2ccco2)c2cc(S(=O)(=O)NC3(C)CC3)ccc21 [Example 52] | 5.16
Cn1c(=O)n(CC2(C)CC2)c2ccc(S(=O)(=O)NC3(C)CC3)cc21 [Example 9] | 4.04

Structure (SMILES) | EC50 [µM]
Cn1c(=O)n(Cc2cccc(C(N)=O)c2)c2ccc(S(=O)(=O)NC3(C)CC3)cc21 [Example 61] | 6.06
COc1ccc(Cn2c(=O)n(C)c3cc(S(=O)(=O)NC4(C)CC4)ccc32)cc1 [Example 37] | 3.15
CN1CCN(CC(=O)N2CCc3ccc(S(=O)(=O)NC4(C)CC4)cc32)C1=O [Example 25, N-(1-Methylcyclopropyl)-1-[2-(3-methyl-2-oxo-imidazolidin-1-yl)acetyl]indoline-6-sulfonamide] | 8.92
Cc1nnc(-n2c(=O)n(CC3CCCN(C)C3)c3ccc(S(=O)(=O)NC4(C)CC4)cc32)s1 (centres unmarked) [Example 136] | 0.567
Cc1nnc(-n2c(=O)n(CC3CCCCN3C)c3ccc(S(=O)(=O)NC4(C)CC4)cc32)o1 (centres unmarked) [Example 138] | 1.02
Cc1ccc(Cn2c(=O)n(C)c3cc(S(=O)(=O)NC4(C)CC4)ccc32)o1 [Example 20] | 3.5
Cn1c(=O)n(Cc2ccccc2C(F)(F)F)c2ccc(S(=O)(=O)NC3(C)CC3)cc21 [Example 46] | 9.75
Cc1cccc(C(=O)n2c(=O)n(C)c3ccc(S(=O)(=O)NC4(C)CC4)cc32)c1 [Example 30] | 9.57
Cn1c(=O)n(-c2ccc(/C=C/C(=O)O)o2)c2cc(S(=O)(=O)NC3(C)CC3)ccc21 [Example 67, (E)-3-[5-[3-Methyl-6-[(1-methylcyclopropyl)sulfamoyl]-2-oxo-benzimidazol-1-yl]-2-furyl]prop-2-enoic acid] | 4.45
Cc1nnc(-n2c(=O)n(CCN3CCCCC3)c3ccc(S(=O)(=O)NC4(C)CC4)cc32)s1 [Example 149] | 0.735
Cc1ncc(Cn2c(=O)n(C)c3cc(S(=O)(=O)NC4(C)CC4)ccc32)s1 [Example 65] | 9.8
Cn1c(=O)n(-c2nncs2)c2cc(S(=O)(=O)NC3(C)CC3)ccc21 [Example 77] | 5
Cn1c(=O)n(-c2ccc(C=O)s2)c2cc(S(=O)(=O)NC3(C)CC3)ccc21 [Example 54] | 9.07
Cn1c(=O)n(CCC2CC2)c2ccc(S(=O)(=O)NC3(C)CC3)cc21 [Example 19] | 5.36
Cn1c(=O)n(Cc2c(Cl)cccc2Cl)c2ccc(S(=O)(=O)NC3(C)CC3)cc21 [Example 1] | 9.41
CC1CC1Cn1c(=O)n(C)c2cc(S(=O)(=O)NC3(C)CC3)ccc21 (centres unmarked) [Example 8] | 4.51
Cc1nc(C)c(Cn2c(=O)n(-c3nncs3)c3cc(S(=O)(=O)NC4(C)CC4)ccc32)s1 [Example 110] | 0.234
Cc1ccccc1C(=O)n1c(=O)n(C)c2ccc(S(=O)(=O)NC3(C)CC3)cc21 [Example 31] | 4.91
Cn1c(=O)n(Cc2cccc(Cl)c2)c2ccc(S(=O)(=O)NC3(C)CC3)cc21 [Example 38] | 5.71
CC(C)Cn1c(=O)n(C)c2cc(S(=O)(=O)NC3(C)CC3)ccc21 [Example 7] | 9.79
Cc1cc(C)cc(Cn2c(=O)n(C)c3cc(S(=O)(=O)NC4(C)CC4)ccc32)c1 [Example 49] | 5.07
C#CCn1c(=O)n(C)c2cc(S(=O)(=O)NC3(C)CC3)ccc21 [Example 17] | 4.78
CC1(NS(=O)(=O)c2ccc3c(c2)[nH]c(=O)n3Cc2ccc(F)cc2)CC1 [Example 72, 1-[(4-Fluorophenyl)methyl]-N-(1-methylcyclopropyl)-2-oxo-3H-benzimidazole-5-sulfonamide] | 8.3
CC(=O)n1c(=O)n(C)c2ccc(S(=O)(=O)NC3(C)CC3)cc21 [Example 24] | 2.8
Cn1c(=O)n(C(=O)C2CCCCC2)c2cc(S(=O)(=O)NC3(C)CC3)ccc21 [Example 28] | 0.352
